Like-named read-outs stand apart in the source and are kept apart here.
Assays:
Assay in all cases: Test B pre-/postemergence plant response
Format in all cases: in vivo
[1] = test system: green foxtail (Setaria viridis); conditions: Setaria viridis; for pest or weed control at 62 g/ha: 62 g ai/ha
How it was run: (§1)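 Each species received compound formulated in non-phytotoxic solvent with surfactant, either at planting into a loam and sand blend or as a foliar spray once plants reached 2 to 18 cm in peat-based medium. Plants stayed in the greenhouse 13 to 15 days before visual evaluation against controls, scored 0 (no effect) to 100 (complete control).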

[2] = test system: giant foxtail (Setaria faberii); conditions: for pest or weed control at 31 g/ha: 31 g ai/ha, scale 0 to 100 (0 no effect, 100 complete control); for pest or weed control at 62 g/ha: 62 g ai/ha
How it was run: as §1

kochia (Kochia scoparia) = conditions: Postemergence
How it was run: as §1

[3] = test system: woolly cupgrass (Eriochloa villosa); conditions: for pest or weed control at 31 g/ha: 31 g ai/ha, scale 0 to 100 (0 no effect, 100 complete control); for pest or weed control at 62 g/ha: 62 g ai/ha
How it was run: as §1

[4] = test system: Surinam grass (Brachiaria decumbens)
How it was run: as §1

[5] = test system: velvetleaf (Abutilon theophrasti)
How it was run: as §1

[6] = test system: yellow nutsedge (Cyperus esculentus)
How it was run: as §1

[7] = test system: downy bromegrass (Bromus tectorum); conditions: for pest or weed control at 31 g/ha: 31 g ai/ha, scale 0 to 100 (0 no effect, 100 complete control); for pest or weed control at 62 g/ha: 62 g ai/ha
How it was run: as §1

[8] = test system: goosegrass (Eleusine indica); conditions: for pest or weed control at 62 g/ha: 62 g ai/ha
How it was run: as §1

[9] = Postemergence, 250 g ai/ha, scale 0 to 100
[10] = Preemergence, 125 g ai/ha, 0 to 100 scale

Molecule `Cc1c(F)cccc1-n1c(-c2ccccc2)ncc(C(=O)C2=C(O)CCCC2=O)c1=O` [Compound 47, 3-(3-fluoro-2-methylphenyl)-5-[(2-hydroxy-6-oxo-1-cyclohexen-1-yl)carbonyl]-2-phenyl-4(3H)-pyrimidinone] has a pest or weed control at 62 g/ha ([1]; post-emergence, Postemergence, scale 0 (no effect) to 100 (complete control), 13 to 15 days, read-out: Plant response rating, Foxtail, Green) of 90%, a pest or weed control at 125 g/ha ([1]; post-emergence, Postemergence, 125 g ai/ha, visual rating after 13 to 15 days, scale 0 (no effect) to 100 (complete control)) of 95% and a pest or weed control at 250 g/ha ([1]; pre-emergence, 250 g ai/ha, Preemergence, 0 to 100 scale, read-out: Plant response rating, Foxtail, Green) of 98%. The pest or weed control at 31 g/ha ([1]; pre-emergence, Preemergence, 31 g ai/ha, scale 0 to 100 (0 no effect, 100 complete control), read-out: Plant response rating, Foxtail, Green) was 65%, the pest or weed control at 62 g/ha ([1]; pre-emergence, Preemergence, scale 0 to 100, 0 no effect, 100 complete control, read-out: Plant response rating, Foxtail, Green) was 80% and the “Foxtail, Giant plant response rating” value [2, 9] was 98. For the same molecule, the “Foxtail, Giant plant response rating” value [2, 10] was 85, the pest or weed control at 31 g/ha ([2]; Setaria faberi, post-emergence, Postemergence, read-out: Plant response rating, Foxtail, Giant) was 90% and the pest or weed control at 62 g/ha ([2]; Setaria faberi, post-emergence, Postemergence, scale 0 (no effect) to 100 (complete control), 13 to 15 days, read-out: Plant response rating, Foxtail, Giant) was 98%. It also gave a pest or weed control at 125 g/ha ([2]; Setaria faberi, post-emergence, Postemergence, 125 g ai/ha, visual rating after 13 to 15 days, scale 0 (no effect) to 100 (complete control)) of 98%, a pest or weed control at 250 g/ha ([2]; Setaria faberi, pre-emergence, 250 g ai/ha, Preemergence, 0 to 100 scale, read-out: Plant response rating, Foxtail, Giant) of 100% and a pest or weed control at 31 g/ha ([2]; Setaria faberi, pre-emergence, Preemergence, read-out: Plant response rating, Foxtail, Giant) of 45%. The pest or weed control at 62 g/ha ([2]; Setaria faberi, pre-emergence, Preemergence, scale 0 to 100, 0 no effect, 100 complete control, read-out: Plant response rating, Foxtail, Giant) was 70%, the pest or weed control at 62 g/ha (kochia (Kochia scoparia); Bassia scoparia, post-emergence, 62 g ai/ha, scale 0 (no effect) to 100 (complete control), 13 to 15 days, read-out: Plant response rating, Kochia) was 95% and the pest or weed control at 125 g/ha (kochia (Kochia scoparia); Bassia scoparia, post-emergence, 125 g ai/ha, visual rating after 13 to 15 days, scale 0 (no effect) to 100 (complete control)) was 98%. For the same molecule, the “Kochia plant response rating” value (kochia (Kochia scoparia); 250 g ai/ha, scale 0 to 100) was 100, the pest or weed control at 31 g/ha ([3]; Eriochloa villosa, post-emergence, Postemergence, read-out: Plant response rating, Cupgrass, Woolly) was 85% and the pest or weed control at 62 g/ha ([3]; Eriochloa villosa, post-emergence, Postemergence, scale 0 (no effect) to 100 (complete control), 13 to 15 days, read-out: Plant response rating, Cupgrass, Woolly) was 90%. The pest or weed control at 125 g/ha ([3]; Eriochloa villosa, post-emergence, Postemergence, 125 g ai/ha, visual rating after 13 to 15 days, scale 0 (no effect) to 100 (complete control)) was 90%, the pest or weed control at 250 g/ha ([3]; Eriochloa villosa, pre-emergence, 250 g ai/ha, Preemergence, 0 to 100 scale, read-out: Plant response rating, Cupgrass, Woolly) was 90% and the pest or weed control at 31 g/ha ([3]; Eriochloa villosa, pre-emergence, Preemergence, read-out: Plant response rating, Cupgrass, Woolly) was 0%. The pest or weed control at 62 g/ha ([3]; Eriochloa villosa, pre-emergence, Preemergence, scale 0 to 100, 0 no effect, 100 complete control, read-out: Plant response rating, Cupgrass, Woolly) was 45%, the “Cupgrass, Woolly plant response rating” value [3, 9] was 100 and the “Cupgrass, Woolly plant response rating” value [3, 10] was 75. For the same molecule, the “Surinam Grass plant response rating” value [4, 10] was 100, the pest or weed control at 62 g/ha ([4]; Urochloa decumbens, post-emergence, Postemergence, 62 g ai/ha, scale 0 (no effect) to 100 (complete control), 13 to 15 days, read-out: Plant response rating, Surinam Grass) was 95% and the pest or weed control at 125 g/ha ([4]; Urochloa decumbens, post-emergence, Postemergence, 125 g ai/ha, visual rating after 13 to 15 days, scale 0 (no effect) to 100 (complete control)) was 98%. The pest or weed control at 250 g/ha ([4]; Urochloa decumbens, pre-emergence, 250 g ai/ha, Preemergence, 0 to 100 scale, read-out: Plant response rating, Surinam Grass) was 100%, the pest or weed control at 31 g/ha ([4]; Urochloa decumbens, pre-emergence, Preemergence, 31 g ai/ha, scale 0 to 100 (0 no effect, 100 complete control), read-out: Plant response rating, Surinam Grass) was 85% and the pest or weed control at 62 g/ha ([5]; Abutilon theophrasti, post-emergence, 360 h, Postemergence, 62 g ai/ha, scale 0 (no effect) to 100 (complete control), 13 to 15 days, read-out: Plant response rating, Velvetleaf) was 85%. The pest or weed control at 125 g/ha ([5]; Abutilon theophrasti, post-emergence, 360 h, Postemergence, 125 g ai/ha, visual rating after 13 to 15 days, scale 0 (no effect) to 100 (complete control)) was 98%, the pest or weed control at 250 g/ha ([5]; Abutilon theophrasti, pre-emergence, 360 h, 250 g ai/ha, Preemergence, 0 to 100 scale, read-out: Plant response rating, Velvetleaf) was 100% and the pest or weed control at 31 g/ha ([5]; Abutilon theophrasti, pre-emergence, 360 h, Preemergence, 31 g ai/ha, scale 0 to 100 (0 no effect, 100 complete control), read-out: Plant response rating, Velvetleaf) was 80%. The “Velvetleaf plant response rating” value [5, 10] was 90, the pest or weed control at 62 g/ha ([6]; Cyperus, post-emergence, Postemergence, 62 g ai/ha, scale 0 (no effect) to 100 (complete control), 13 to 15 days, read-out: Plant response rating, Nutsedge, Yellow) was 65% and the pest or weed control at 125 g/ha ([6]; Cyperus, post-emergence, Postemergence, 125 g ai/ha, visual rating after 13 to 15 days, scale 0 (no effect) to 100 (complete control)) was 70%. For the same molecule, the pest or weed control at 250 g/ha ([6]; Cyperus, pre-emergence, 250 g ai/ha, Preemergence, 0 to 100 scale, read-out: Plant response rating, Nutsedge, Yellow) was 90%, the pest or weed control at 31 g/ha ([6]; Cyperus, pre-emergence, Preemergence, 31 g ai/ha, scale 0 to 100 (0 no effect, 100 complete control), read-out: Plant response rating, Nutsedge, Yellow) was 45% and the “Nutsedge, Yellow plant response rating” value [6, 10] was 80. For the same molecule, the pest or weed control at 31 g/ha ([7]; Bromus tectorum, post-emergence, Postemergence, read-out: Plant response rating, Bromegrass, Downy) was 35%, the pest or weed control at 62 g/ha ([7]; Bromus tectorum, post-emergence, Postemergence, scale 0 (no effect) to 100 (complete control), 13 to 15 days, read-out: Plant response rating, Bromegrass, Downy) was 40% and the pest or weed control at 125 g/ha ([7]; Bromus tectorum, post-emergence, Postemergence, 125 g ai/ha, visual rating after 13 to 15 days, scale 0 (no effect) to 100 (complete control)) was 50%. The pest or weed control at 250 g/ha ([7]; Bromus tectorum, pre-emergence, 250 g ai/ha, Preemergence, 0 to 100 scale, read-out: Plant response rating, Bromegrass, Downy) was 10%, the pest or weed control at 31 g/ha ([7]; Bromus tectorum, pre-emergence, Preemergence, read-out: Plant response rating, Bromegrass, Downy) was 0% and the pest or weed control at 62 g/ha ([7]; Bromus tectorum, pre-emergence, Preemergence, scale 0 to 100, 0 no effect, 100 complete control, read-out: Plant response rating, Bromegrass, Downy) was 5%. The “Bromegrass, Downy plant response rating” value [7, 9] was 55, the “Bromegrass, Downy plant response rating” value [7, 10] was 5 and the pest or weed control at 62 g/ha ([8]; Eleusine indica, post-emergence, Postemergence, scale 0 (no effect) to 100 (complete control), 13 to 15 days, read-out: Plant response rating, Goosegrass) was 95%. It also gave a pest or weed control at 125 g/ha ([8]; Eleusine indica, post-emergence, Postemergence, 125 g ai/ha, visual rating after 13 to 15 days, scale 0 (no effect) to 100 (complete control)) of 95%, a pest or weed control at 250 g/ha ([8]; Eleusine indica, pre-emergence, 250 g ai/ha, Preemergence, 0 to 100 scale, read-out: Plant response rating, Goosegrass) of 100% and a pest or weed control at 31 g/ha ([8]; Eleusine indica, pre-emergence, Preemergence, 31 g ai/ha, scale 0 to 100 (0 no effect, 100 complete control), read-out: Plant response rating, Goosegrass) of 95%. For the same molecule, the pest or weed control at 62 g/ha ([8]; Eleusine indica, pre-emergence, Preemergence, scale 0 to 100, 0 no effect, 100 complete control, read-out: Plant response rating, Goosegrass) was 100%, the “Goosegrass plant response rating” value [8, 9] was 98 and the “Goosegrass plant response rating” value [8, 10] was 100.

Reference: patent US8952024B2, “Herbicidal pyrimidone derivatives” (E I du Pont de Nemours and Company, priority 2009, dated 2015)
